Patent US8399440B2, “Disease modifying anti-arthritic activity of 2-methoxyestradiol” (EntreMed, Inc., priority 2006, dated 2013)

Tests used:
synovial microvessels = assay: Synovial vascularity by laminin immunostaining; format: in vivo, Rat (Lewis); conditions: between the various treatment groups and vehicle, any vessel size
Description: (§1) Tissue samples, including joints, were fixed in 10% phosphate-buffered formalin or AFA fixative ([…], 2% formalin, 5% glacial acetic acid, 20% water), the latter for immunostaining. Samples were then decalcified in formic or acetic acid and paraffin embedded. Sections (5 μm) were stained with hematoxylin-eosin (H&E) using routine techniques. To stain cartilage proteoglycan, separate sections were stained with safranin O (Difco, Detroit, Mich.) for 1 min. as described previously (Issekutz, (2001). To assess microvessel density in the synovium, rabbit anti-mouse laminin polyclonal IgG antibody (Cedarlane Laboratories Limited, Homby, ON) was used to outline vessels, with detection using biotinylated goat anti-rabbit IgG antibody and avidin-biotin complexed with HRPO according to manufacturer's recommendations (Vectastain Elite ABC kit; Vector Laboratories Canada Inc., Burlington, ON).
To assess synovial vascularity and angiogenesis, sections were immunostained for laminin to reliably delineate microvessels as well as medium-sized vessels. […] The other commonly used endothelial cell marker, CD31, was also evaluated on the synovial tissue. […] This vascularity was quantitated in synovia from rats treated with the various protocols and compared to vehicle-treated animals. […] Only vessels that were in cross-section were scored. […]

[1] = tested on: PMNL migration to arthritic joints; assay: 51Cr-labeled PMNL migration to arthritic joints; format: in vivo, Rat (Lewis)
Text: Rat blood PMNL were isolated from a donor arthritic rat by hydroxyethyl starch (Hespan; Dupont Merck, Wilmington, Del.) exchange transfusion performed through a needle inserted in a femoral vein. The exchanged blood was collected into heparin and acid-citrate-dextrose (ACD, formula A; Fenwal-Travenol, Malton, ON) and the leukocyte-rich plasma was harvested during 1 g sedimentation of red blood cells. The PMNL were then isolated by centrifugation on discontinuous Percoll density gradients of 63% Percoll above 74% Percoll with 10% autologous plasma and calcium and magnesium-free Tyrode's solution (TyS^−/−) for the balance of the suspending medium. After centrifugation (350×g, 30 min at 22° C.) the purified PMNL (>95%) were harvested from the layer above the 74% plasma-Percoll cushion and after washing with TyS^−/−−10% plasma, the cells were radiolabeled with 75 μCi/5×10^7 cells of Na2^51CrO4 (GE Healthcare Bio-Sciences Inc., Baie d'Urfé, QC). After the cells were washed, they were injected i.v. into rats at a dose of 10^7 51Cr-labeled PMNL per animal bearing approximately 1-2×10^5 cpm. These cells were allowed to circulate and migrate for 2 h prior to sacrifice of the rats.
At the time the rats were killed, cardiac blood was obtained to measure the blood leukocyte count and the leukocyte and plasma associated radioactivity. Joints were dissected and segments of limbs sectioned to include carpal, metacarpal, talar and metatarsal joints for analysis as previously reported (Issekutz et al. Lab Invest. (1991), 64:656-63 and Issekutz et al. Arthritis Rheum. (2001), 44:1428-37). The content of ^51Cr in the joints, as well as in dermal skin sites and internal organs, was determined with a Wallac LKB 1280 gamma counter (Fisher Scientific, Nepean, ON). Accumulated isotope in the tissue was expressed as cpm/10^6 cpm injected i.v.

[2] = Steady-state PK in study SMP05-010; format: in vivo, Mouse (Balb/C)
spleen = assay: Splenomegaly and spleen histology in adjuvant arthritis; format: in vivo, Rat (Lewis)
Description: During the course of AA in the rat, splenomegaly is a prominent feature due to splenitis, lymphoid hyperplasia and even abscess formation. Therefore the splenic enlargement in these animals was monitored for any effect of 2ME2 on this parameter. In rats that were treated with vehicle, spleen weights increased dramatically, increasing nearly three-fold.
A histological examination of the spleens was undertaken in the different groups. The appearance of a normal rat spleen (A) and vehicle-treated spleen (B).

[3] = tested on: Collagen-Induced Arthritis; assay: Collagen-induced arthritis (UCLA studies); format: in vivo, Rat (Louvain)
[4] = tested on: Arthrogen Collagen MAb-Induced Arthritis; assay: Arthrogen collagen MAb-induced arthritis (Arthrogen-CIA model of RA); format: in vivo, Mouse (Balb/C)
endothelial cell = assay: Endothelial cell proliferation in vitro
[5] = tested on: joint synovium and articular cartilage; assay: Joint histology and cartilage damage (H&E, safranin O); format: in vivo, Rat (Lewis)
Description: as §1
Even by the H&E staining the cartilage damage is visible on the articular surfaces and margins. This is more profoundly illustrated by the safranin O staining with marked focal proteoglycan loss and fragmentation.

lymph node cells = assay: Ex vivo proliferation of lymph node cells from treated rats
Description: Because of the effect of 2ME2 treatment on arthritis severity and the response in the spleen during AA, the T lymphocyte reactivity to mitogens the Mycobacterial purified protein derivative (PPD) antigen was evaluated. […] The effect of various concentrations of 2ME2 in vitro on this proliferative response was evaluated. […] To further assess the effect of 2ME2 on lymphocyte responsiveness, lymph node cells harvested from rats treated with 2ME2 (30 mg/kg/d) from day 6-14 post-immunization were tested for proliferative response to PPD and the mitogens, Con A and PHA and compared to lymphocytes from vehicle-treated animals.

[6] = tested on: Adjuvant-Induced Arthritis (Adoptive Transfer Model); assay: Adjuvant-induced arthritis, adoptive transfer model; format: in vivo, Rat (Lewis); conditions: Dalhousie Study #2; 3, 30 mg/kg/d SC
[7] = tested on: Adjuvant-Induced Arthritis; assay: Adjuvant arthritis, clinical arthritis severity; format: in vivo, Rat (Lewis); conditions: for arthritis severity (clinical score) by day 14, mean: vehicle reached score 11
[8] = Dalhousie Study #1, 30, 100 mg/kg/d PO

SMILES: COc1cc2c(cc1O)CC[C@@H]1[C@@H]2CC[C@]2(C)[C@@H](O)CC[C@@H]12 [2ME2, 2-methoxyestradiol]
- vessel density per 0.8 mm^2 (small, medium, large vessels) in synovium (synovial microvessels): no significant difference
- accumulation of 51Cr-labeled PMNL in hind limb joints ([1]; 100 or 30 mg/kg/d initiated at day 6 (preclinical phase)): significantly decreased
- immune cell migration to the joint [1, 8]: Blocked
- accumulation of 51Cr-labeled PMNL in joints ([1]; delayed treatment starting on day 10, tendency for a decrease): did not reach significance
- Steady-state AUC0-24 ([2]; 25 mg/kg PO): 66 ng·h/mL
- Steady-state AUC0-24 ([2]; 50 mg/kg PO): 117 ng·h/mL
- spleen histology (spleen; 30 mg/kg/d from day 6-14 post-immunization, no increase in giant cells or abscess formation, no lymphoid hyperplasia): Only mild splenitis
- increase in spleen weight (splenic enlargement) (spleen; 30 mg/kg/d started on day 6 post-immunization): completely inhibited
- splenic abscess formation, giant cells, and lymphoid hyperplasia (spleen; [8]): Decreased
- increase in spleen weight (splenic enlargement) (spleen; high dose (100 mg/kg/d) started on day 6 post-immunization): completely inhibited
- splenic enlargement (spleen; treatment initiated at day 10): markedly inhibited
- onset of disease ([3]; UCLA Study #1, PO): Delays onset
- inhibition of clinical arthritic score and bone erosion ([3]; UCLA Study #1, prevention 30, 100 mg/kg/d PO, treatment 10, 30, 100 mg/kg/d PO): Dose dependent
- inhibition of clinical arthritic score, inflammation, and bone erosion, cartilage degradation and pannus formation ([3]; UCLA Study #2, treatment from day 10, 50 mg/kg BID, 100 or 300 mg/kg/d PO or 60 mg/kg/d SC osmotic pumps): Dose dependent
- arthritic score ([4]; FIG. 1): decreases
- synovial inflammation ([4]; FIG. 2, 100 mg/kg versus control): inhibits
- periarticular inflammatory infiltrate and fibrosis ([4]; FIG. 3, 100 mg/kg versus control): inhibition
- loss of proteoglycan in articular cartilage and induction of osteoclast activity ([4]; FIG. 4, 100 mg/kg versus control): prevents
- severity of RA progression ([4]; FIG. 5): inhibit
- percent inhibition of arthritic score ([4]; FIG. 7, 2ME2 in combination with methotrexate): unexpected increase
- radiographic assessment ([4]; FIG. 8): radiographic evidence of 2ME2's anti-rheumatic effect
- inhibition of clinical arthritic score, inflammation, cartilage degradation, bone resorption, and pannus formation ([4]; Study SMP04-040, 1, 10, 100 mg/kg/d PO, prevention (start 1 day after induction), Panzem NCD formulation): Dose-dependent
- inhibition of clinical arthritic score, inflammation, cartilage degradation, bone resorption, and pannus formation ([4]; Study SMP05-009, 100 mg/kg/d, 100 mg/kg/week, 100 mg/kg twice a week PO, prevention): Regimen-
- inhibition of clinical arthritic score, inflammation, cartilage degradation, bone resorption, and pannus formation ([4]; Study SMP05-010, 10, 25, 50, 75, 100 mg/kg/d PO, prevention): Dose-dependent
- inhibition of clinical arthritic score upon combination of the two drugs ([4]; Study SMP05-046, 2ME2 10 or 100 mg/kg/d PO combined with MTX 0.1 or 1 mg/kg/d IP, prevention): Additive
- pathology in the liver ([4]; Study SMP05-046, 2ME2 PO in combination with MTX IP): No pathology
- pathology in the liver ([4]; Study SMP05-046, either drug alone (2ME2 10 or 100 mg/kg/d PO; MTX 0.1 or 1 mg/kg/d IP)): No pathology
- IC50, endothelial cell proliferation (endothelial cell; optimal serum and endothelial cell growth supplements): approximately 0.5 μg/mL
- concentration required for inhibition under optimal versus restricted growth conditions (endothelial cell; optimal serum and growth supplements versus restricted): two-fold higher concentration
- IC50 (endothelial cell; read-out: IC50, endothelial cell proliferation, optimal serum and endothelial cell growth supplements): ~1500 nM
- concentration giving significant inhibition of endothelial cell proliferation (endothelial cell; restricted serum and growth factor): 0.25 µg/mL
- articular cartilage surfaces and proteoglycan staining ([5]; 100 mg/kg/d initiated at day 6 post-immunization): preservation of articular cartilage surfaces and proteoglycan staining
- leukocyte infiltration of the synovium ([5]; 100 mg/kg/d initiated at day 6 post-immunization, compared to vehicle): less intense leukocyte infiltration
- cartilage preservation ([5]; treatment delayed to day 10): cartilage preservation was still observed
- leukocyte cellularity in the synovium ([5]; treatment delayed to day 10): less noticeably affected
- proliferative response to PPD (DNA incorporation) (lymph node cells; lymphocytes from rats given 30 mg/kg/d day 6-14, compared to vehicle-treated): significantly reduced
- proliferation induced by Con A or PHA (lymph node cells; lymphocytes from rats given 30 mg/kg/d day 6-14, no 2ME2 added to cultures): no difference
- inhibition of clinical arthritic score, inflammation, and bone destruction [6]: Dose dependent
- arthritis severity (clinical score) by day 14, mean ([7]; 30 mg/kg/d i.p. initiated day 6 post-immunization): 7.4
- modification of arthritis severity ([7]; 30 mg/kg/d initiated on day 10 post-immunization): did not reach statistical significance
- arthritis severity (clinical score) by day 14, mean ([7]; 100 mg/kg/d i.p. initiated day 6 post-immunization): 6.5
- arthritis severity ([7]; 100 mg/kg/d initiated at onset of clinical arthritis, day 10 post-immunization): attenuation of arthritis severity
